The experiment deals with Carbonic anhydrase 2 (Homo sapiens, UniProt P00918). As to the kind of experiment: Fluorescence-Based CA II Binding Assay. As to conditions: pH 7; 25 °C. On the procedure:
The assay was performed according to a previously reported protocol.[Banerjee et al., Biochemistry, 44:3673-3682] DNSA stock solution was prepared at 1 mm in DMSO/water (1:1). CA II (1 mm) was added to the test probe (over a 0.1-100 mm concentration range) in HEPES buffer [HEPES (25 mm) with acetonitrile (10 %), pH 7.0] and mixed well. DNSA (0.1 mm) was added, and the resulting solution was incubated at RT for 10 min and then transferred into a black-wall 96-well plate (final volume […]). The fluorescence was measured with a Spectra Max 250 plate reader (Molecular Devices, Sunnyvale, CA, USA) at an excitation of 285 nm and emission of 465 nm at 25 °C.

One may read the IC50 as the concentration that inhibits the measured activity by half. A low value points to greater potency.

In turn, `C#CCOCCOCCOCCOCCNC(=O)c1ccc(S(N)(=O)=O)cc1` [N-(3,6,9,12-Tetraoxapentadec-14-ynyl)-4-sulfamoylbenzamide (13)] registered an IC50 of 0.288 µM.

`C#CCOCCOCCOCCOCCOCCC(=O)Nc1ccc(C(=O)c2ccc(NC(=O)CCNC(=O)c3ccccc3)cc2)cc1` [N-(4-{4-[3-(Phenylformamido)propanamido]benzoyl}phenyl)-4,7,10,13,16-pentaoxanonadec-18-ynamide (12)] returned an IC50 of more than 5000 µM. To `C#CCOCCOCCOCCOCCOCCC(=O)Nc1ccc(C(=O)c2ccc(NC(=O)CCNC(=O)c3ccc(S(N)(=O)=O)cc3)cc2)cc1` [N-[4-(4-{3-[(4-Sulfamoylphenyl)formamido]propanamido}benzoyl)phenyl]-4,7,10,13,16-pentaoxanonadec-18-ynamide (1)] belongs 0.216 µM; to `C#CCOCCOCCOCCOCCOCCC(=O)N[C@@H](Cc1cn(-c2ccc(C(=O)c3ccccc3)cc2)nn1)C(=O)NCCc1ccc(S(N)(=O)=O)cc1` [N-[(1S)-2-[1-(4-Benzoylphenyl)-1,2,3-triazol-4-yl]-1-{[2-(4-sulfamoylphenyl)ethyl]carbamoyl}ethyl]-4,7,10,13,16-pentaoxanonadec-18-ynamide (7)], 0.604 µM; to `CCCOCCOCCOC#COCCOCCC(=O)N[C@@H](Cc1cn(-c2ccc(C(=O)c3ccccc3)cc2)nn1)C(=O)Nc1ccccc1` [N-[(1S)-2-[1-(4-Benzoylphenyl)-1H-1,2,3-triazol-4-yl]-1-(phenylcarbamoyl)ethyl]-4,7,10,13,16-pentaoxanonadec-8-ynamide (15)], more than 5000 µM. To `C#CCOCCOCCOCCOCCOCCC(=O)N[C@@H](Cc1cn(-c2ccc(C(=O)c3ccccc3)cc2)nn1)C(=O)Nc1ccc(S(N)(=O)=O)cc1` [N-[(1S)-2-[1-(4-Benzoylphenyl)-1H-1,2,3-triazol-4-yl]-1-[(4-sulfamoylphenyl)carbamoyl]ethyl]-4,7,10,13,16-pentaoxanonadec-18-ynamide (9)] belongs 1.55 µM.

As for `C#CCOCCOCCOCCOCCOCCC(=O)N[C@@H](Cc1cn(-c2ccc(C(=O)c3ccccc3)cc2)nn1)C(=O)NCc1ccc(S(N)(=O)=O)cc1` [N-[(1S)-2-[1-(4-Benzoylphenyl)-1H-1,2,3-triazol-4-yl]-1-{[(4-sulfamoylphenyl)methyl]carbamoyl}ethyl]-4,7,10,13,16-pentaoxanonadec-18-ynamide (8)], the IC50 came out at 3.1 µM.

With `C#CCOCCOCCOCCOCCOCCC(=O)Nc1ccc(C(=O)c2ccc(NC(=O)CCCC(=O)Nc3cccc(S(N)(=O)=O)c3)cc2)cc1` [N-{4-[4-(4,7,10,13,16-Pentaoxanonadec-18-ynamido)benzoyl]-phenyl}-N’-(3-sulfamoylphenyl)pentanediamide (5)], the IC50 is 0.914 µM. Consider `C#CCOCCOCCOCCOCCOCCC(=O)Nc1ccc(C(=O)c2ccc(NC(=O)CCCC(=O)Nc3ccc(S(N)(=O)=O)cc3)cc2)cc1` [N-{4-[4-(4,7,10,13,16-Pentaoxanonadec-18-ynamido)benzoyl]-phenyl}-N’-(4-sulfamoylphenyl)pentanediamide (4)], for which the IC50 was found to be 0.36 µM. For `C#CCOCCOCCOCCOCCOCCC(=O)Nc1ccc(C(=O)c2ccc(NC(=O)CCCC(=O)NCCc3ccc(S(N)(=O)=O)cc3)cc2)cc1` [N-{4-[4-(4,7,10,13,16-Pentaoxanonadec-18-ynamido)benzoyl]-phenyl}-N’-[2-(4-sulfamoylphenyl)ethyl]pentanediamide (2)], the IC50 stood at 0.502 µM.

Consider `C#CCOCCOCCOCCOCCOCCC(=O)Nc1ccc(C(=O)c2ccc(NC(=O)CCCC(=O)NCc3ccc(S(N)(=O)=O)cc3)cc2)cc1` [N-{4-[4-(4,7,10,13,16-Pentaoxanonadec-18-ynamido)benzoyl]-phenyl}-N’-[(4-sulfamoylphenyl)methyl]pentanediamide (3)], for which the IC50 amounted to 1.22 µM. The compound `C#CCOCCOCCOCCOCCOCCC(=O)Nc1ccc(C(=O)c2ccc(NC(=O)c3ccc(S(N)(=O)=O)cc3)cc2)cc1` [N-{4-[4-(4-Sulfamoylbenzamido)benzoyl]phenyl}-4,7,10,13,16-pentaoxanonadec-18-ynamide (6)] showed an IC50 of 0.8 µM. The compound `C#CCOCCOCCOCCOCCOCCC(=O)N[C@@H](Cc1cn(-c2ccc(C(=O)c3ccccc3)cc2)nn1)C(=O)Nc1cccc(S(N)(=O)=O)c1` [N-{(1S)-2-[1-(4-Benzoylphenyl)-1H-1,2,3-triazol-4-yl]-1-[(3-sulfamoylphenyl)carbamoyl]ethyl}-4,7,10,13,16-pentaoxanonadec-18-ynamide (10)] came in with an IC50 of 2.03 µM. `C#CCOCCOCCOCCOCCOCCC(=O)N[C@@H](Cc1cn(-c2ccc(C(=O)c3ccccc3)cc2)nn1)C(=O)Nc1nnc(S(N)(=O)=O)s1` [N-{(1S)-2-[1-(4-Benzoylphenyl)-1H-1,2,3-triazol-4-yl]-1-[(5-sulfamoyl-1,3,4-thiadiazol-2-yl)carbamoyl]ethyl}-4,7,10,13,16-pentaoxanonadec-18-ynamide (11)]: the IC50 is 0.139 µM.

The values above are taken from BindingDB's records for doi:10.1002/cbic.201600598 (Griffith University, 2017).
